This assay is described as follows: Concentration for hnps- Phospholipase A2 was evaluated using radioligand [3H]arachidonate binding assay in Escherichia coli membranes. It counts as cell membranes.

Take `CCCCCCCCOCC(COP(=O)(O)OCCN)OP(=O)(O)CCCCCCC` (stereo unspecified): the IC50 (as a rule, the point on the concentration scale where inhibition reaches its midpoint) stood at 200 nM.

The record behind these values is ChEMBL document CHEMBL1129420 (J Med Chem, 1996).
